The record followed here is US20120157452A1, “1H-PYRAZOLO[3,4-B] PYRIDINE COMPOUNDS FOR INHIBITING RAF KINASE” (GENENTECH, INC., priority 2009, published 2012).

Bounds are passed on as bounds.

In one test the target is T1, V600E full-length B-Raf (Homo sapiens, UniProt P15056, V600E).
T1 construct: made in house; host or cells: Sf9 insect cells (baculovirus)
In words: B-Raf IC50 assay: incorporation of radio labeled phosphate from [γ-33P]ATP into FSBA-modified wild-type MEK. In kind it is biochemical. In outline: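 Sf9-expressed enzyme (20 nM) preincubated 15 min with 1 µM FSBA-MEK, then reaction started with ATP (4 µM final plus [γ-33P]ATP) in Pipes pH 7.2, 100 mM KCl, 10 mM MgCl2. 60 min at 22 °C; TCA-quenched, filter-captured product counted by scintillation.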

A further test relates to LOX xenografts. In words: Tumor Growth Inhibition (LOX) in nude mice with subcutaneous LOX xenografts. As to conditions: female nude mice, subcutaneous LOX xenograft, 30 mg/kg PO on days 1, 2, 3 and 4. In kind it is in vivo. On the procedure:
Female nude mice were implanted subcutaneously on the right flank with approximately 3.5×10^6 LOX cells in 100 μL PBS. Five to seven days later, tumors were measured and mice were randomized into groups of six with average tumor volume in each group of approximately 200 mm^3. Examples 30 and 42 were dissolved in 80% PEG400/20% ethanol before dosing, and administered PO at a volume of 5 mL/kg. Dosing was vehicle alone on days 1, 2, 3 and 4; and Examples 30 and 42 at 30 mg/kg on days 1, 2, 3 and 4 Animal weights and tumor volumes were measured using electronic calipers on […]. Tumor volume was calculated using the formula: volume=(width^2×length)/2. Each Example was run in a separate study with its own vehicle comparison.

T1 sequence (P15056 whole entry V600E): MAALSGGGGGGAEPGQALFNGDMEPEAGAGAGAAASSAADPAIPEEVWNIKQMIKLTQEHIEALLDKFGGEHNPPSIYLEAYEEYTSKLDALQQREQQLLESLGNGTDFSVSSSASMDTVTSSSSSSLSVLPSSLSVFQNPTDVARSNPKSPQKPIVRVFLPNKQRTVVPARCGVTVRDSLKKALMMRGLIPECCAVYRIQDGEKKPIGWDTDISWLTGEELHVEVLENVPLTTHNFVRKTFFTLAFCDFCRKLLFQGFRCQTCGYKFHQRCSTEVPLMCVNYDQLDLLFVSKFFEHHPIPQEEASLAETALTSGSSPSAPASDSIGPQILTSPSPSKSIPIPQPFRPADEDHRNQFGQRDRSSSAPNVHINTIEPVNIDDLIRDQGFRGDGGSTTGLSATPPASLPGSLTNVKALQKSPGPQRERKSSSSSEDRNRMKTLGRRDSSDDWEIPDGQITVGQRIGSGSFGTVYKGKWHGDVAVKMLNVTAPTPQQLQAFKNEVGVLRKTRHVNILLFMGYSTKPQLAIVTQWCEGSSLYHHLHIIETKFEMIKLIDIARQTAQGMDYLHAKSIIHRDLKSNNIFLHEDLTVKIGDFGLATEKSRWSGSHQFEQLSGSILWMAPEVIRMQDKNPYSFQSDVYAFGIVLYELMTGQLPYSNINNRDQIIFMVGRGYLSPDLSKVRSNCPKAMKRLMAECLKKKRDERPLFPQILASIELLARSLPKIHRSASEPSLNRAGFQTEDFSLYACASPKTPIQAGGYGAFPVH

As a reminder, the IC50 is the concentration needed to halve the response being measured. Low readings indicate greater potency, high ones weaker potency. As for `COc1n[nH]c2ncc(NC(=O)c3c(Cl)ccc(OCc4ccc(Cl)cc4)c3F)cc12` [Example 30, 6-chloro-3-(4-chlorobenzyloxy)-2-fluoro-N-(3-methoxy-1H-pyrazolo[3,4-b]pyridin-5-yl)benzamide], the IC50 was 0.74 nM against V600E full-length B-Raf (4 μM ATP, 60-minute incubation, representative data of multiple tests) and less than 100 nM against V600E full-length B-Raf (bound stated). In addition, in the test with LOX xenografts (Day 1), the “Tumor Volume (mm^3) Day 1” value was determined as 221.68 mm^3. Besides, the “Tumor Volume (mm^3) Day 3” value with LOX xenografts (Day 3) came to 204.49 mm^3. Besides, in the test with LOX xenografts (Day 5), the “Tumor Volume (mm^3) Day 5” value was 168.94 mm^3.
